Measurements published in US20080166805A1, “Culturing human cells and tissues in an N-glycolylneuraminic acid-free environment” (The Regents of the University of California, priority 2005, published 2008).

What was measured:
[1] = system: lysosomal sialic acid transporter mutant human fibroblasts (GM08496); test: Neu5Gc/ManNGc feeding, lysosomal sialic acid transporter mutant fibroblasts GM08496; assay type: cell-based; details: GM08496 (Salla disease) fibroblasts fed 3 mM for 3 days
Excerpt: Cell Lines—Caco-2 cells (human epithelial cells isolated from a primary colon carcinoma), normal human skin fibroblasts (CCD-919-SK) and chinese hamster ovary (CHO-K1) cells were purchased from ATCC (Manassas, Va.) Mutant human skin fibroblasts (GM05520, GM08496 and GM01718) were obtained from the Coriell Institute for Medical Research (Camden, N.J.) Chimpanzee Fred and human […] EBV-transformed lymphoblasts were a gift from Dr. Peter Parham, Stanford University, CA. […]
Fractionation of the Labeled Cells—Washed cell pellets were sonicated into 500 μL of 20 mM sodium phosphate buffer or 20 mM Tris-HCl, pH 7.5, using 4×15 second pulses of a sonicator cell disrupter, model Some Dismembrator (Fisher Scientific, Hampton, N.J.) at a probe setting of 3. […] The pellet contained <5% of the incorporated sialic acid as determined using a radioactive tracer (data not shown.) The supernatant was therefore considered as the “total homogenate” fraction. A portion (20%) of the “total homogenate” fraction was taken for protein quantification and Sia analysis by DMB derivatization and HPLC analysis (as discussed below.) The remainder was centrifuged at 100,000×g for 1 h. […] All the Sias in these fractions were released with mild acid hydrolysis if necessary and then analyzed by HPLC after DMB derivatization. […]

chimpanzee lymphoblasts = test: Neu5Gc/Neu5Ac feeding experiment, chimpanzee EBV-transformed lymphoblasts; assay type: cell-based; details: chimpanzee lymphoblasts fed 3 mM for 3 days
Description: (§1) Cell Culture—Caco-2 cells were propagated in alpha-MEM containing GLUTAMAX™ (Invitrogen, San Diego, Calif.) and a mixture of ribonucleosides and deoxyribonucleosides (Gibco/Invitrogen, San Diego, Calif.) supplemented with 20% FCS. All the fibroblast cell lines and CHO-K1 cells were cultured in the same media supplemented respectively with 15% non-heat inactivated FCS or 10% heat inactivated FCS. Chimpanzee Fred and human […] EBV-transformed lymphoblasts were cultured in RPMI-1640 (Gibco/Invitrogen, San Diego, Calif.) supplemented with 10% heat inactivated FCS or 15% human serum. All of the cultures were maintained at 37° C., 5% CO2 atmosphere. In order to deplete any remaining Neu5Gc from FCS, the cells were split and cultured prior to Neu5Gc feeding experiments for at least 4 days in alpha-MEM supplemented with an adequate percentage of heat-inactivated premium human serum instead of FCS. The cells were then maintained under the same conditions during the whole feeding experiment. The human serum was heat inactivated at 56° C. for 30 min. before use.
(§2) Neu5Gc and ManNGc Feeding Experiment—Neu5Ac, Neu5Gc or ManNGc were dried, dissolved in the appropriate media supplemented with heat-inactivated human serum, sterilized using a Spin-X® (Corning Inc., Corning, N.Y.) and then added to the cells. The pH of the media containing Sia was adjusted to neutrality using sterilized 1M NaOH before starting the feeding experiment. Cells were cultured in the presence of up to 3 mM free Sia or ManNGc for 1 or 3 days at 37° C. […]
(§3) Fractionation of the Labeled Cells—Washed cell pellets were sonicated into 500 μL of 20 mM sodium phosphate buffer or 20 mM Tris-HCl, pH 7.5, using 4×15 second pulses of a sonicator cell disrupter, model Some Dismembrator (Fisher Scientific, Hampton, N.J.) at a probe setting of 3. […] The pellet contained <5% of the incorporated sialic acid as determined using a radioactive tracer (data not shown.) The supernatant was therefore considered as the “total homogenate” fraction. A portion (20%) of the “total homogenate” fraction was taken for protein quantification and Sia analysis by DMB derivatization and HPLC analysis (as discussed below.) The remainder was centrifuged at 100,000×g for 1 h. […] All the Sias in these fractions were released with mild acid hydrolysis if necessary and then analyzed by HPLC after DMB derivatization. Protein quantification was performed on the total homogenate, membrane and soluble protein fractions by using the BCA protein assay kit from Pierce (Rockford, Ill.) In some experiments, the resulting data obtained for the Sia bound to the membrane fraction and to the soluble proteins were pooled and presented here as a High Molecular Weight (HMW) fraction. […]

Caco-2 cells = test: Competition of free Neu5Ac with free Neu5Gc for incorporation into Caco-2 cells; assay type: cell-based, human; details: 3 mM Neu5Gc for 3 days
Description: (§4) Neu5Gc and ManNGc Feeding Experiment—Neu5Ac, Neu5Gc or ManNGc were dried, dissolved in the appropriate media supplemented with heat-inactivated human serum, sterilized using a Spin-X® (Corning Inc., Corning, N.Y.) and then added to the cells. The pH of the media containing Sia was adjusted to neutrality using sterilized 1M NaOH before starting the feeding experiment. Cells were cultured in the presence of up to 3 mM free Sia or ManNGc for 1 or 3 days at 37° C. At the end of the feeding, cells were washed with cold PBS, harvested either by scraping or with 2 mM EDTA for fibroblasts, and washed again with cold PBS prior to fractionation.
Fractionation of the Labeled Cells—Washed cell pellets were sonicated into 500 μL of 20 mM sodium phosphate buffer or 20 mM Tris-HCl, pH 7.5, using 4×15 second pulses of a sonicator cell disrupter, model Some Dismembrator (Fisher Scientific, Hampton, N.J.) at a probe setting of 3. The sonicate was centrifuged at 75×g for 15 min., and the pellet obtained consisted primarily of nuclei and unbroken cells. The pellet contained <5% of the incorporated sialic acid as determined using a radioactive tracer (data not shown.) The supernatant was therefore considered as the “total homogenate” fraction. A portion (20%) of the “total homogenate” fraction was taken for protein quantification and Sia analysis by DMB derivatization and HPLC analysis (as discussed below.) The remainder was centrifuged at 100,000×g for 1 h. The resulting pellet, called the “membrane” fraction, was then resuspended by sonication (15 sec.) in 200 μl of sodium acetate buffer, pH 5.5. The 100,000×g supernatant, called the “soluble” fraction was adjusted to 90% ethanol using absolute ice-cold ethanol, and placed overnight at −20° C. The flocculant precipitate, which represents the “soluble protein” fraction, was washed 3 times with 90% ice-cold ethanol and then resuspended in 200 μl of water. The supernatant fluid representing the cytosolic low molecular weight (LMW) fraction was dried and brought up in 100 μL with water prior to Sia analysis. All the Sias in these fractions were released with mild acid hydrolysis if necessary and then analyzed by HPLC after DMB derivatization. Protein quantification was performed on the total homogenate, membrane and soluble protein fractions by using the BCA protein assay kit from Pierce (Rockford, Ill.) In some experiments, the resulting data obtained for the Sia bound to the membrane fraction and to the soluble proteins were pooled and presented here as a High Molecular Weight (HMW) fraction.
Sialic Acid Release, DMB Derivatization and HPLC Analysis—The bound Sias from the total homogenate, membrane and soluble protein fractions were released using 2M acetic acid hydrolysis, 3 h. at 80° C. The released Sias, or free Sias, contained in the soluble LMW fraction were passed through a Microcon® YM-10 filter (Millipore, Bedford, Mass.) prior to DMB derivatization, which was done according to Hara et al., 1989. DMB-Sia derivatives from the different fractions were then analyzed by HPLC using a C18 column (Microsorb Mv-TM 100 A, Varian, Palo Alto, Calif.) Isocratic elution was achieved using 7% methanol, 8% acetonitrile in water during 50 min. at 0.9 ml/min flow. The eluant was monitored by fluorescence.
Quantification of Sias—For all HPLC chromatograms, the quantification of Sias was done by comparison with known quantities of DMB derivatized Neu5Gc and Neu5Ac used as standards and then reported in terms of pmoles of Sia. For total homogenate, membrane and cytosolic protein fractions, this number was expressed per mg of protein. Due to minor sample-to-sample variations in amounts and recoveries, the data in the Figures is presented as percent of Neu5Gc over total Sias, rather than as absolute amounts.

[2] = system: human LB EBV-transformed lymphoblasts; test: Neu5Gc/Neu5Ac feeding experiment, human EBV-transformed lymphoblasts; assay type: cell-based; details: human lymphoblasts fed 3 mM for 3 days
Description: as §1, §2, §3

[3] = system: human neuroblastoma cells; test: Neu5Gc feeding experiment, human neuroblastoma cells; assay type: cell-based; details: neuroblastoma cells fed 3 mM for 3 days
Description: as §4
Fractionation of the Labeled Cells—Washed cell pellets were sonicated into 500 μL of 20 mM sodium phosphate buffer or 20 mM Tris-HCl, pH 7.5, using 4×15 second pulses of a sonicator cell disrupter, model Some Dismembrator (Fisher Scientific, Hampton, N.J.) at a probe setting of 3. […] The pellet contained <5% of the incorporated sialic acid as determined using a radioactive tracer (data not shown.) The supernatant was therefore considered as the “total homogenate” fraction. A portion (20%) of the “total homogenate” fraction was taken for protein quantification and Sia analysis by DMB derivatization and HPLC analysis (as discussed below.) The remainder was centrifuged at 100,000×g for 1 h. […]

O=C(CO)N[C@H]1[C@H]([C@H](O)[C@H](O)CO)OC(O)(C(=O)O)C[C@@H]1O (stereo partly shown) [Neu5Gc, N-glycolylneuraminic acid]
percent of Neu5Gc in membrane-bound glycoconjugates [1]: 16%
Neu5Gc as percent of total Sia, TH fraction (chimpanzee lymphoblasts; non-fed baseline 57%): 70%
Neu5Gc as percent of total Sia, HMW fraction (chimpanzee lymphoblasts; non-fed baseline 66%): 72%
Neu5Gc as percent of total Sia, LMW fraction (chimpanzee lymphoblasts; non-fed baseline 70%): 84%
Neu5Gc as percent of total Sia, membrane-bound fraction (Caco-2 cells; no added Neu5Ac): 41%
Neu5Gc as percent of total Sia, TH (Caco-2 cells; no added Neu5Ac (baseline incorporation)): 56%
Neu5Gc as percent of total Sia, HMW fraction [2]: 51%
Neu5Gc as percent of total Sia, LMW cytosolic fraction [2]: 80%
Neu5Gc as percent of total Sia, TH fraction [2]: 67%
Neu5Gc incorporation efficiency [3]: efficiency comparable to the Caco-2 cells
